Laboratory results published in patent US4439426A, “Semisynthetic macrolidic antibiotics, intermediate compounds for their preparation and related pharmaceutical compositions containing them” (priority 1981, dated 1984).

How the values were obtained:
[1] = test system: Micrococcus luteus ATCC 9341 LRP 6; assay: Bacteriostatic power in solid medium (MIC); assay type: cell-based; conditions: Micrococcus luteus, ATCC9341, read-out: Minimum inhibiting concentration
Summary of the method: (§1)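 Against a mixed bacterial collection (aerobic, anaerobic; Gram-positive, Gram-negative), inhibitory power is quantified by the lowest concentration still halting growth.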

[2] = test system: Streptococcus pneumoniae ATCC 6303 LRP 52; assay: Bacteriostatic power in solid medium (MIC); assay type: cell-based; conditions: Streptococcus pneumoniae, ATCC6303, read-out: Minimum inhibiting concentration
Summary of the method: as §1

[3] = test system: Klelsiella pneumoniae LRP 54; assay: Bacteriostatic power in solid medium (MIC); assay type: cell-based; conditions: read-out: Minimum inhibiting concentration
Summary of the method: as §1

[4] = test system: Streptococcus pyogenes ATCC 8668 LRP 197; assay: Bacteriostatic power in solid medium (MIC); assay type: cell-based; conditions: Streptococcus pyogenes, ATCC8668, read-out: Minimum inhibiting concentration
Summary of the method: as §1

[5] = test system: Mycoplasma hominis I ATCC 14027 LRP 211; assay: Bacteriostatic power in solid medium (MIC); assay type: cell-based; conditions: Metamycoplasma hominis, ATCC14027, read-out: Minimum inhibiting concentration
Summary of the method: as §1

[6] = test system: Corynebacterium diphteriae LRP 24; assay: Bacteriostatic power in solid medium (MIC); assay type: cell-based; conditions: Corynebacterium, LRP24, read-out: Minimum inhibiting concentration
Summary of the method: as §1

[7] = test system: Streptococcus faecalis subsp. zymogenes ATCC 12958 LRP 61; assay: Bacteriostatic power in solid medium (MIC); assay type: cell-based; conditions: Enterococcus faecalis, ATCC12958, read-out: Minimum inhibiting concentration
Summary of the method: as §1

[8] = test system: Acholeplasma laidlawii ATCC 23206 LRP 204; assay: Bacteriostatic power in solid medium (MIC); assay type: cell-based; conditions: Acholeplasma laidlawii, ATCC23206, read-out: Minimum inhibiting concentration
Summary of the method: as §1

[9] = test system: Streptococcus pneumoniae ATCC 6303 LRP 35; assay: Bacteriostatic power in solid medium (MIC); assay type: cell-based; conditions: Streptococcus pneumoniae, ATCC6303, read-out: Minimum inhibiting concentration
Summary of the method: as §1

[10] = test system: Neisseria gonorrhoeae ATCC 19424 LRP 214; assay: Bacteriostatic power in solid medium (MIC); assay type: cell-based; conditions: Neisseria gonorrhoeae, ATCC19424, read-out: Minimum inhibiting concentration
Summary of the method: as §1

[11] = test system: Streptococcus pyogenes ATCC 8668 LRP 34; assay: Bacteriostatic power in solid medium (MIC); assay type: cell-based; conditions: Streptococcus pyogenes, ATCC8668, read-out: Minimum inhibiting concentration
Summary of the method: as §1

[12] = test system: Micrococcus luteus ATCC 15957 LRP 193; assay: Bacteriostatic power in solid medium (MIC); assay type: cell-based; conditions: Micrococcus luteus, ATCC15957, read-out: Minimum inhibiting concentration
Summary of the method: as §1

[13] = test system: Proteus vulgaris ATCC 6380 LRP 13; assay: Bacteriostatic power in solid medium (MIC); assay type: cell-based; conditions: Proteus vulgaris, ATCC6380, read-out: Minimum inhibiting concentration
Summary of the method: as §1

[14] = test system: Streptococcus pneumoniae ATCC 6303 LRP 53; assay: Bacteriostatic power in solid medium (MIC); assay type: cell-based; conditions: Streptococcus pneumoniae, ATCC6303, read-out: Minimum inhibiting concentration
Summary of the method: as §1

[15] = test system: Staphylococcus aureus ATCC 14154 LRP 78; assay: Bacteriostatic power in solid medium (MIC); assay type: cell-based; conditions: Staphylococcus aureus, ATCC14154, read-out: Minimum inhibiting concentration
Summary of the method: as §1

[16] = test system: Haemophilus influenzae ATCC 19418 LRP 213; assay: Bacteriostatic power in solid medium (MIC); assay type: cell-based; conditions: Haemophilus influenzae, ATCC19418, read-out: Minimum inhibiting concentration
Summary of the method: as §1

Escherichia coli LRP 50 = assay: Bacteriostatic power in solid medium (MIC); assay type: cell-based; conditions: Escherichia coli, LRP50, read-out: Minimum inhibiting concentration
Summary of the method: as §1

Bacillus subtilis LRP 25 = assay: Bacteriostatic power in solid medium (MIC); assay type: cell-based; conditions: Bacillus subtilis, LRP25, read-out: Minimum inhibiting concentration
Summary of the method: as §1

[17] = test system: Staphylococcus aureus ATCC 6538P LRP 14; assay: Bacteriostatic power in solid medium (MIC); assay type: cell-based; conditions: Staphylococcus aureus, ATCC6538P, read-out: Minimum inhibiting concentration
Summary of the method: as §1

Shigella sonnei LRP 5 = assay: Bacteriostatic power in solid medium (MIC); assay type: cell-based; conditions: LRP5, read-out: Minimum inhibiting concentration
Summary of the method: as §1

[18] = test system: Fusobacteriumnecrophroum ATCC 27852 LRP 210; assay: Bacteriostatic power in solid medium (MIC); assay type: cell-based; conditions: read-out: Minimum inhibiting concentration
Summary of the method: as §1

[19] = test system: Bacteroides fragilis ATCC 23745 LRP 205; assay: Bacteriostatic power in solid medium (MIC); assay type: cell-based; conditions: Bacteroides fragilis, ATCC23745, read-out: Minimum inhibiting concentration
Summary of the method: as §1

[20] = test system: Staphylococcus aureus ATCC 6538P LRP 39; assay: Bacteriostatic power in solid medium (MIC); assay type: cell-based; conditions: Staphylococcus aureus, ATCC6538P, read-out: Minimum inhibiting concentration
Summary of the method: as §1

[21] = test system: Streptococcus faecalis LRP 7; assay: Bacteriostatic power in solid medium (MIC); assay type: cell-based; conditions: Enterococcus faecalis, LRP7, read-out: Minimum inhibiting concentration
Summary of the method: as §1

[22] = test system: Pseudomonas aeruginosa LRP 9; assay: Bacteriostatic power in solid medium (MIC); assay type: cell-based; conditions: Pseudomonas aeruginosa, LRP9, read-out: Minimum inhibiting concentration
Summary of the method: as §1

[23] = test system: Corynebacterium diphteriae LRP 24; assay: Minimum bactericidal concentration (MBC); assay type: cell-based
Source text: (§2) the bacterial power, expressed as the minimum bactericidal power (MBC) against some Gram positive aerobic stocks (table 5).

[24] = test system: Streptococcus faecalis subs. zymogenes LRP 61; assay: Minimum bactericidal concentration (MBC); assay type: cell-based
Source text: as §2

[25] = test system: Staphylococcus aureus ATCC 6538 P LRP 39; assay: Minimum bactericidal concentration (MBC); assay type: cell-based
Source text: as §2

[26] = test system: Streptococcus pneumoniae ATCC 6303 LRP 35; assay: Minimum bactericidal concentration (MBC); assay type: cell-based
Source text: as §2

[27] = test system: Streptococcus pyogenes ATCC 8668 LRP 34; assay: Minimum bactericidal concentration (MBC); assay type: cell-based
Source text: as §2

[28] = test system: Corynebacterium diphteriae LRP 24; assay: Bacteriostatic power in liquid medium (MIC); assay type: cell-based; conditions: Corynebacterium, LRP24, read-out: Minimum inhibiting concentration
Summary of the method: as §1

[29] = test system: Staphylococcus aureus ATCC 6538 P LRP 39; assay: Bacteriostatic power in liquid medium (MIC); assay type: cell-based; conditions: Staphylococcus aureus, ATCC6538, read-out: Minimum inhibiting concentration
Summary of the method: as §1

[30] = test system: Streptococcus pneumoniae ATCC 6303 LRP 35; assay: Bacteriostatic power in liquid medium (MIC); assay type: cell-based; conditions: Streptococcus pneumoniae, ATCC6303, read-out: Minimum inhibiting concentration
Summary of the method: as §1

[31] = test system: Streptococcus pyogenes ATCC 8668 LRP 34; assay: Bacteriostatic power in liquid medium (MIC); assay type: cell-based; conditions: Streptococcus pyogenes, ATCC8668, read-out: Minimum inhibiting concentration
Summary of the method: as §1

[32] = test system: Streptococcus faecalis subs. zymogenes ATCC 12958 LRP 61; assay: Bacteriostatic power in liquid medium (MIC); assay type: cell-based; conditions: Enterococcus faecalis, ATCC12958, read-out: Minimum inhibiting concentration
Summary of the method: as §1

[33] = Stability in acidic environment at 25° C. (half-life of initial microbiological activity); assay type: physicochemical; conditions: aqueous solution
Procedure: Stability in acidic environnment at 25° C. of the novel
Note: t 1/2 represents the time for reducing to one half the initial powe
of the antibiotic determined by microbiological method through diffusion
on a plate using the test stock Microccocus luteus (Sarcina lutea) ATCC

[34] = test system: Clostridium perfrigens ATCC 3624 LRP 206; assay: microbe, parasite or virus in culture; assay type: cell-based; conditions: ATCC3624, solid medium, anaerobic, read-out: Minimum inhibiting concentration
Summary of the method: as §1

Salmonella typhy LRP 8 = assay: microbe, parasite or virus in culture; assay type: cell-based; conditions: LRP8, solid medium, read-out: Minimum inhibiting concentration
Summary of the method: as §1

CC[C@H]1OC(=O)[C@H](C)[C@@H](O[C@H]2C[C@H](OC)[C@@H](O)[C@H](C)O2)[C@H](C)[C@@H](O[C@@H]2O[C@H](C)C[C@H](N(C)C)[C@H]2O)[C@](C)(O)C[C@](C)(F)C(=O)[C@H](C)[C@@H](O)[C@]1(C)O [P-80207, 3-O-oleandrosyl-5-O-desosaminyl-(8S)-8-fluoroerythronolide A]
10 h: half-life ([33]; pH 2)
25 µg/mL: MIC [3] | MIC [5] | MIC [12] | MIC [13] | MIC [15] | MIC (Escherichia coli LRP 50) | MIC (Shigella sonnei LRP 5) | MIC [22] | MIC (Salmonella typhy LRP 8)
8: MBC/MIC [24] | MBC/MIC [25] | MBC/MIC [27]
0.78 µg/mL: MBC ([27]; Streptococcus pyogenes, ATCC8668, read-out: Minimum bactericidal concentration (MBC)) | MIC [29] | MIC [32]
100 h: half-life ([33]; pH 3)
0.195 µg/mL: MBC ([23]; Corynebacterium, LRP24, read-out: Minimum bactericidal concentration (MBC))
0.049 µg/mL: MIC [1] | MIC [2] | MIC [6] | MIC [9] | MIC [11] | MIC [28] | MIC [30]
3.12 µg/mL: MIC [8] | MIC [19]
0.39 µg/mL: MIC [7] | MIC (Bacillus subtilis LRP 25) | MIC [17] | MIC [20] | MIC [21]
2: MBC/MIC [26]
12.5 µg/mL: MIC [16] | MIC [18]
4: MBC/MIC [23]
6.25 µg/mL: MBC ([24]; Enterococcus faecalis, read-out: Minimum bactericidal concentration (MBC)) | MBC ([25]; Staphylococcus aureus, ATCC6538, read-out: Minimum bactericidal concentration (MBC)) | MIC [34]
0.097 µg/mL: MIC [4] | MIC [10] | MIC [14] | MBC ([26]; Streptococcus pneumoniae, ATCC6303, read-out: Minimum bactericidal concentration (MBC)) | MIC [31]
